Reference: PubChem BioAssay AID256 (DTP/NCI, 2004)
Where “and” joins values, the source holds several entries; their conditions need not be identical. Equal entries are not always repeated. Toxic doses and inconclusive results are not listed. How the source made its calls: active means survival T/C of 150% or more; inactive means T/C below 125% in these data.

Test system: CD2F1 mice, L1210 leukemia ip, survival T/C
Experiment: NCI In Vivo Anticancer Drug Screen. Data for tumor model L1210 Leukemia (intraperitoneal) in CD2F1 (CDF1) mice
Conditions: higher = longer survival
In short: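 Compound-dosed mice with transplantable tumor versus matched vehicle controls; endpoint ratio T/C reported.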

[1] = endpoint: mean survival time, dose: 100.0 mg/kg/injection, schedule: Q04DX003 (ip), vehicle: saline with Tween-80
[2] = endpoint: mean survival time, dose: 200.0 mg/kg/injection, schedule: Q04DX003 (ip), vehicle: saline with Tween-80
[3] = endpoint: mean survival time, dose: 400.0 mg/kg/injection, schedule: Q04DX003 (ip), vehicle: saline with Tween-80
[4] = endpoint: mean survival time, dose: 75.0 mg/kg/injection, schedule: Q01DX001 (ip), vehicle: saline
[5] = endpoint: mean survival time, dose: 150.0 mg/kg/injection, schedule: Q01DX001 (ip), vehicle: saline
[6] = endpoint: mean survival time, dose: 100.0 mg/kg/injection, schedule: Q01DX001 (ip), vehicle: saline
[7] = endpoint: mean survival time, dose: 100.0 mg/kg/injection, schedule: Q01DX009 (ip), vehicle: saline with Tween-80
[8] = endpoint: mean survival time, dose: 200.0 mg/kg/injection, schedule: Q01DX009 (ip), vehicle: saline with Tween-80
[9] = endpoint: mean survival time, dose: 400.0 mg/kg/injection, schedule: Q01DX009 (ip), vehicle: saline with Tween-80
[10] = endpoint: mean survival time, dose: 100.0 mg/kg/injection, schedule: Q01DX001 (ip), vehicle: saline with Tween-80

Measured: T/C

CNC(=O)c1n[nH]c(C)c1[N+](=O)[O-]
inactive: endpoint: mean survival time, dose: 25.0 mg/kg/injection, schedule: Q01DX009 (ip), vehicle: Klucel (hydroxypropylcellulose) (HPC) 107 % of control | endpoint: mean survival time, dose: 50.0 mg/kg/injection, schedule: Q01DX009 (ip), vehicle: Klucel (hydroxypropylcellulose) (HPC) 107 % of control | endpoint: mean survival time, dose: 100.0 mg/kg/injection, schedule: Q01DX009 (ip), vehicle: Klucel (hydroxypropylcellulose) (HPC) 107 % of control | endpoint: mean survival time, dose: 200.0 mg/kg/injection, schedule: Q01DX009 (ip), vehicle: Klucel (hydroxypropylcellulose) (HPC) 104 % of control | endpoint: mean survival time, dose: 400.0 mg/kg/injection, schedule: Q01DX009 (ip), vehicle: Klucel (hydroxypropylcellulose) (HPC) 102 % of control

COC(=O)CCC(C)(c1ccc(O)cc1)c1ccc(O)cc1
inactive: [1] 103 % of control | [2] 97 % of control | [3] 91 % of control

c1ccc(C(c2ccccc2)n2ccnc2)cc1
inactive: [4] 100 % of control | [5] 101 % of control

CCOC/C(O)=C(\C#N)c1ccc(Cl)cc1
inactive: endpoint: mean survival time, dose: 12.5 mg/kg/injection, schedule: Q01DX009 (ip), vehicle: other 94 % of control and 104 % of control | endpoint: mean survival time, dose: 12.5 mg/kg/injection, schedule: Q04DX003 (ip), vehicle: other 104 % of control | endpoint: mean survival time, dose: 25.0 mg/kg/injection, schedule: Q01DX001 (ip), vehicle: other 93 % of control | endpoint: mean survival time, dose: 25.0 mg/kg/injection, schedule: Q01DX009 (ip), vehicle: other 95 % of control and 100 % of control | endpoint: mean survival time, dose: 25.0 mg/kg/injection, schedule: Q04DX002 (ip), vehicle: other 116 % of control and 111 % of control | endpoint: mean survival time, dose: 25.0 mg/kg/injection, schedule: Q04DX003 (ip), vehicle: other 101 % of control | endpoint: mean survival time, dose: 50.0 mg/kg/injection, schedule: Q01DX001 (ip), vehicle: other 100 % of control | endpoint: mean survival time, dose: 50.0 mg/kg/injection, schedule: Q01DX009 (ip), vehicle: other 93 % of control and 95 % of control | endpoint: mean survival time, dose: 50.0 mg/kg/injection, schedule: Q04DX002 (ip), vehicle: other 94 % of control and 99 % of control | endpoint: mean survival time, dose: 50.0 mg/kg/injection, schedule: Q04DX003 (ip), vehicle: other 101 % of control

CC(=O)CCN1Cc2cc3c(cc2C(O)C1)OCO3 (stereo not drawn)
inactive: [4] 104 % of control | [5] 97 % of control | endpoint: mean survival time, dose: 300.0 mg/kg/injection, schedule: Q01DX001 (ip), vehicle: saline 95 % of control

NCC1CCC(C(=O)O)CC1 (stereo not drawn)
inactive: endpoint: median survival time, dose: 12.5 mg/kg/injection, schedule: Q01DX009 (ip), vehicle: saline with Tween-80 101 % of control | endpoint: median survival time, dose: 25.0 mg/kg/injection, schedule: Q01DX009 (ip), vehicle: saline with Tween-80 101 % of control | endpoint: median survival time, dose: 50.0 mg/kg/injection, schedule: Q01DX005 (ip), vehicle: saline with Tween-80 110 % of control | endpoint: median survival time, dose: 50.0 mg/kg/injection, schedule: Q01DX009 (ip), vehicle: saline with Tween-80 100 % of control | endpoint: median survival time, dose: 100.0 mg/kg/injection, schedule: Q01DX005 (ip), vehicle: saline with Tween-80 104 % of control | endpoint: median survival time, dose: 100.0 mg/kg/injection, schedule: Q01DX009 (ip), vehicle: saline with Tween-80 101 % of control | endpoint: median survival time, dose: 200.0 mg/kg/injection, schedule: Q01DX005 (ip), vehicle: saline with Tween-80 97 % of control | endpoint: median survival time, dose: 200.0 mg/kg/injection, schedule: Q01DX009 (ip), vehicle: saline with Tween-80 100 % of control | endpoint: median survival time, dose: 400.0 mg/kg/injection, schedule: Q01DX005 (ip), vehicle: saline with Tween-80 105 % of control | endpoint: median survival time, dose: 400.0 mg/kg/injection, schedule: Q01DX009 (ip), vehicle: saline with Tween-80 100 % of control | endpoint: median survival time, dose: 800.0 mg/kg/injection, schedule: Q01DX005 (ip), vehicle: saline with Tween-80 97 % of control

BrC/C(=N\N1CCCCC1)c1ccc(Br)cc1
inactive: endpoint: mean survival time, dose: 25.0 mg/kg/injection, schedule: Q01DX009 (ip), vehicle: saline sonified 100 % of control | endpoint: mean survival time, dose: 50.0 mg/kg/injection, schedule: Q01DX009 (ip), vehicle: saline sonified 96 % of control | [6] 94 % of control | endpoint: mean survival time, dose: 100.0 mg/kg/injection, schedule: Q01DX009 (ip), vehicle: saline sonified 96 % of control | endpoint: mean survival time, dose: 200.0 mg/kg/injection, schedule: Q01DX001 (ip), vehicle: saline 102 % of control | endpoint: mean survival time, dose: 400.0 mg/kg/injection, schedule: Q01DX001 (ip), vehicle: saline 95 % of control

COC(=O)C(Br)C(Br)c1ccccc1 (stereo not drawn)
inactive: [7] 101 % of control | [1] 103 % of control | [8] 101 % of control | [2] 106 % of control | [9] 95 % of control | [3] 106 % of control

O=c1[nH]c2ccccc2c2c3ccccc3nn12
inactive: endpoint: mean survival time, dose: 25.0 mg/kg/injection, schedule: Q04DX002 (ip), vehicle: saline with Tween-80 113 % of control | endpoint: mean survival time, dose: 50.0 mg/kg/injection, schedule: Q04DX002 (ip), vehicle: saline with Tween-80 103 % of control | endpoint: mean survival time, dose: 100.0 mg/kg/injection, schedule: Q04DX002 (ip), vehicle: saline with Tween-80 96 % of control and 100 % of control | endpoint: mean survival time, dose: 200.0 mg/kg/injection, schedule: Q04DX002 (ip), vehicle: saline with Tween-80 100 % of control and 106 % of control | endpoint: mean survival time, dose: 400.0 mg/kg/injection, schedule: Q04DX002 (ip), vehicle: saline with Tween-80 103 % of control

O=C1c2ccccc2C(c2ccc(Br)cc2)C1Br (stereo not drawn)
inactive: [1] 97 % of control | [2] 90 % of control | [3] 100 % of control

COc1cc(O)c(Cc2ccccc2O)c(O)c1C(=O)CCc1ccccc1
inactive: endpoint: mean survival time, dose: 1.25 mg/kg/injection, schedule: Q01DX009 (ip), vehicle: saline with Tween-80 105 % of control | endpoint: mean survival time, dose: 2.5 mg/kg/injection, schedule: Q01DX009 (ip), vehicle: saline with Tween-80 100 % of control | endpoint: mean survival time, dose: 5.0 mg/kg/injection, schedule: Q01DX009 (ip), vehicle: saline with Tween-80 97 % of control | endpoint: mean survival time, dose: 10.0 mg/kg/injection, schedule: Q01DX009 (ip), vehicle: saline with Tween-80 105 % of control | endpoint: mean survival time, dose: 20.0 mg/kg/injection, schedule: Q01DX009 (ip), vehicle: saline with Tween-80 100 % of control

CC1NC=NC1C(c1ccccc1)c1ccccc1 (stereo not drawn)
inactive: endpoint: mean survival time, dose: 25.0 mg/kg/injection, schedule: Q04DX003 (ip), vehicle: saline with Tween-80 102 % of control | endpoint: mean survival time, dose: 50.0 mg/kg/injection, schedule: Q04DX003 (ip), vehicle: saline with Tween-80 109 % of control | [1] 101 % of control

CCCCNc1cc(=O)[nH]c(=O)[nH]1
inactive: endpoint: mean survival time, dose: 50.0 mg/kg/injection, schedule: Q01DX001 (ip), vehicle: saline with Tween-80 104 % of control | [10] 98 % of control | endpoint: mean survival time, dose: 200.0 mg/kg/injection, schedule: Q01DX001 (ip), vehicle: saline with Tween-80 102 % of control

O=S1(=O)CC2(N3CCOCC3)CCCCC21 (stereo not drawn)
inactive: endpoint: mean survival time, dose: 100.0 mg/kg/injection, schedule: Q04DX003 (ip), vehicle: saline 100 % of control | endpoint: mean survival time, dose: 200.0 mg/kg/injection, schedule: Q04DX003 (ip), vehicle: saline 102 % of control | endpoint: mean survival time, dose: 400.0 mg/kg/injection, schedule: Q04DX003 (ip), vehicle: saline 104 % of control

Oc1ccccc1/C=N/c1nc(-c2ccccc2)cs1.Oc1ccccc1/C=N/c1nc(-c2ccccc2)cs1.[Zn]
inactive: endpoint: mean survival time, dose: 25.0 mg/kg/injection, schedule: Q01DX001 (ip), vehicle: saline 103 % of control | endpoint: mean survival time, dose: 50.0 mg/kg/injection, schedule: Q01DX001 (ip), vehicle: saline 100 % of control | [10] 104 % of control | [6] 91 % of control

C1CC[N-]CC1.[Cl][Pt+2][Cl].[NH2-]
inactive: endpoint: mean survival time, dose: 6.25 mg/kg/injection, schedule: Q04DX003 (ip), vehicle: distilled water + Tween-80 100 % of control | endpoint: mean survival time, dose: 12.5 mg/kg/injection, schedule: Q04DX003 (ip), vehicle: distilled water + Tween-80 96 % of control | endpoint: mean survival time, dose: 25.0 mg/kg/injection, schedule: Q04DX003 (ip), vehicle: distilled water + Tween-80 94 % of control | endpoint: mean survival time, dose: 50.0 mg/kg/injection, schedule: Q04DX003 (ip), vehicle: distilled water + Tween-80 91 % of control

O=C(CCl)C(c1ccc([N+](=O)[O-])cc1)c1ccc([N+](=O)[O-])cc1
inactive: [7] 98 % of control | [1] 100 % of control | [8] 98 % of control | [2] 103 % of control | [9] 98 % of control | [3] 108 % of control

CC1CCC[N-]C1.CC1CCC[N-]C1.CC1CCC[N-]C1.CC1CCC[N-]C1.[Cl][Rh][Cl] (stereo not drawn)
inactive: endpoint: mean survival time, dose: 4.0 mg/kg/injection, schedule: Q01DX009 (ip), vehicle: saline 109 % of control | endpoint: mean survival time, dose: 6.0 mg/kg/injection, schedule: Q01DX009 (ip), vehicle: saline 122 % of control | endpoint: mean survival time, dose: 9.0 mg/kg/injection, schedule: Q01DX009 (ip), vehicle: saline 114 % of control

O=S(=O)(c1ccccc1)C(Cl)Cl
inactive: endpoint: mean survival time, dose: 100.0 mg/kg/injection, schedule: Q04DX003 (ip), vehicle: other 95 % of control | endpoint: mean survival time, dose: 200.0 mg/kg/injection, schedule: Q04DX003 (ip), vehicle: other 100 % of control | endpoint: mean survival time, dose: 400.0 mg/kg/injection, schedule: Q04DX003 (ip), vehicle: other 100 % of control
